# Measured values as given in article PMC7852567, “A first-in-human phase 1 and pharmacological study of TAS-119, a novel selective Aurora A kinase inhibitor in patients with advanced solid tumours” (British Journal of Cancer, 2020).
# Where two headings read alike, the source gives them in different places.
# Columns and labels:
# [1] = tested on: ROS; details: cited from earlier work
# [2] = tested on: patients with advanced, refractory, solid tumours; test: First-in-human phase 1 study: safety, tolerability, DLT, MTD, RP2D; format: in vivo; details: for DLT events in words: cycle 1
# Description: This multicentre study (six centres) consisted of a dose escalation part with a 3 + 3 design to explore safety and tolerability. Patients were enrolled into predefined dose levels (DLs; 70, 150, 200, 250, 300 mg BID) utilising a 4 days on/3 days off schedule 3 out of 4 weeks (intermittent schedule). The rationale for this intermittent schedule was based on pre-clinical data showing a more favourable toxicity profile, compared to continuous dosing regimens while maintaining antitumour activity. In addition to the 4 days on/3 days off, 3 out of 4 weeks schedule, a continuous dosing (200 mg BID) schedule with the same weekly schedule (4 days on/3 days off) administered 4 out of 4 weeks, was explored in the escalation phase. A minimum of 3 patients were to be treated at each DL, and at least 6 patients were planned to be enrolled at the MTD level. The MTD was defined as the highest DL at which <33% of patients experienced a dose-limiting toxicity (DLT) during cycle 1. The RP2D was defined as a dose below or equal to the MTD based on the evaluation of all available information (tolerability in cycles after cycle 1, PK, PD or other safety information). The RP2D was used in the expansion part of this study. Based on the safety profile assessed in the dose escalation part of this study, either the intermittent (3 out of 4 weeks) or the continuous dosing schedule (4 out of 4 weeks) could be selected.
# TAS-119 was administered orally BID as tablets of 25 and 100 mg strength, on an empty stomach. Based on rodent toxicology data, 70 mg BID was determined as the starting dose after conversion from the severely toxic dose in 10% of exposed animals (STD10) (63 mg/kg BID) to one tenth of the human equivalent dose. […] Non-haematological DLTs consisted of grade ≥3 toxicity (excluding nausea/vomiting lasting <48 h and controlled by anti-emetic therapy, diarrhoea lasting <48 h and responsive to anti-diarrhoea medication or hypersensitivity reactions), whereas haematological DLT consisted of any grade 4 neutropenia lasting >7 days, any febrile neutropenia (documented absolute neutrophil count <1000/mm^3) lasting >1 h, any grade 4 thrombocytopenia or grade 3 thrombocytopenia associated with bleeding and requiring blood transfusion.
# Vital sign assessment, blood cell count, serum biochemistry, coagulation parameters, urinalysis, a 12-lead electrocardiogram and, if applicable, a pregnancy test were performed at baseline. In addition, after the amendment of the protocol (Amendment 2: 31-March-2015) an ophthalmologic assessment, including visual acuity, pupil shape and pupillary reflexes, extraocular motility (eye movement) and alignment, tonometry, visual field, external examination, slit-lamp examination, and fundoscopy, was performed and repeated in all patients on days 8 and 22 during cycle 1 and on day 1 of every subsequent cycle, beginning with cycle 3. This was a consequence of ocular toxicity observed in 2 out of 26 patients until that moment.
# (§1) Adverse events (AEs) at baseline and during the study were recorded and graded based on the Common Terminology Criteria for Adverse Events v4.03. Tumour measurements were done at the end of every second cycle or as per the Institutional standard of care in case of clinical indications. Response were assessed using Response Evaluation Criteria in Solid Tumours (RECIST) v1.1.[19]
# [3] = Plasma and urine pharmacokinetics in patients (LC-MS/MS, non-compartmental); format: in vivo, human; details: for mean ratio of AUC0 − last (accumulation): RP2D level DL 2.1, 200 mg BID; for Tmax: po, all dose levels; for CL renal: urine, urine 0 to 12 h, cycle 1 day 1
# Description: Blood samples for PK analysis were collected in cycle 1, on days 1, 4 and 18 pre-dose and at 0.5, 1, 2, 3, 5, 8, and 12 h post-dose. Urine samples were collected on day 1 of cycle 1 before dosing and from 0 to 12 h after dosing. Plasma and urine concentrations of TAS-119 were determined by validated liquid chromatography–tandem mass spectrometry method. PK parameters included the peak plasma concentration (Cmax), time to reach maximum concentration in plasma (Tmax), area under the plasma concentration–time curve up to the last observable concentration (AUC0 − last) and up to infinity (AUC0 − inf), terminal phase elimination half-life (T1/2), clearance (CL/F), apparent volume of distribution (Vd/F), renal clearance (CLr) and oral clearance (CL/F).
# The influence of polymorphisms of SLCO1B1 encoding the drug influx transporter OATP1B1 was examined in a blood sample obtained pre-dose on day 1 of cycle 1 for all patients during the dose escalation part. MYC amplification and β-catenin mutation were assessed in archival formalin-fixed paraffin-embedded tumour samples obtained after enrolment of the patient into the study.
# Descriptive statistics were used to summarise safety data (AEs, vital signs and clinical laboratory results) overall response based on RECIST, PK and PD data. PK parameters were calculated by standard non-compartmental methods using Phoenix^TMWinNonlin® (Ver 6.3 or later, Certara L.P.). Dose proportionality of TAS-119 was evaluated with a power model and a linear regression model using logarithmic values of PK parameters such as Cmax and AUCs, as well as a one-way analysis of variance (ANOVA) using dose-normalised parameters such as Cmax, AUCs, CL/F, and apparent volume of distribution (Vd/F). Student’s t test was used to test statistical significance of the PD data and calculate the mean ratio for AUC0 − last at RP2D or MTD. Influence of SLCO1B1 genotypes on PK parameters was tested by ANOVA.
# [4] = tested on: phosphorylated histone H3 (pHH3); test: pHH3 immunohistochemistry in paired skin biopsies and paired tumour samples; format: in vivo, human
# Description: (§2) Blood and tissue samples were taken for PD on-target effects during mitosis of TAS-119. First, the rate of phosphorylated histone H3 (pHH3) immunohistochemistry-positive cells to total cells were measured in paired skin biopsies and paired tumour samples collected prior to first TAS-119 administration as well as after receiving TAS-119 on day 4 of cycle 1. In case of target engagement, an increase in pHH3 is expected because of cells that will stagnate in mitosis. Second, pre- and post-dose mRNA expression of genes involved in mitosis, BORA, SGOL2, KIF20A and DEPDC-1, was analysed in tissue samples by reverse transcriptase-polymerase chain reaction.
# [5] = tested on: BORA, SGOL2, KIF20A and DEPDC-1; test: mRNA expression of mitosis genes by RT-PCR in tissue samples; format: in vivo, human; details: 32 patients from the dose escalation part
# Description: as §2
# [6] = tested on: advanced solid tumours; test: Antitumour activity by RECIST v1.1; format: in vivo, human
# Description: as §1
# Planned enrolment in the dose escalation part included 18–30 evaluable patients, with 3–6 DLT evaluable patients in each DL. To further assess the feasibility as well as preliminarily efficacy of the RP2D, approximately 40 patients were planned to be enrolled into the expansion part (approximately 10–15 patients in each of the expansion cohorts). An additional 20 patients were pre-planned to be enrolled in an extension of the expansion part provided that either an overall response rate (ORR) of ≥20% for each specific indication or ≥10% for patients with MYC-amplified or β-catenin-mutated tumours had been observed.
# [7] = tested on: AurA; parameters: method as in doi:10.1016/S0959-8049(14)70524-6; details: pre-clinical data; cited from earlier work
# [8] = tested on: AurB; parameters: method as in doi:10.1016/S0959-8049(14)70524-6; details: pre-clinical data; cited from earlier work
# [9] = tested on: AurC; parameters: method as in doi:10.1016/S0959-8049(14)70524-6; details: pre-clinical data; cited from earlier work
# [10] = tested on: TRK-A; parameters: method as in doi:10.1016/S0959-8049(14)70524-6; details: pre-clinical data; cited from earlier work
# [11] = tested on: TRK-B; parameters: method as in doi:10.1016/S0959-8049(14)70524-6; details: pre-clinical data; cited from earlier work
# [12] = tested on: TRK-C; parameters: method as in doi:10.1016/S0959-8049(14)70524-6; details: pre-clinical data; cited from earlier work
# [13] = tested on: RET; parameters: method as in doi:10.1016/S0959-8049(14)70524-6; details: pre-clinical data; cited from earlier work
# [14] = tested on: ROS; parameters: method as in doi:10.1016/S0959-8049(14)70524-6; details: pre-clinical data; cited from earlier work
# [15] = tested on: cancer cells with MYC oncogene amplifications and/or mutations in the Wnt/β-catenin pathway; parameters: method as in PMID 22222631, doi:10.15761/IMM.1000162; details: cited from earlier work
# [16] = cited from earlier work
# [17] = in vivo; cited from earlier work
smiles,measurement,setting,value
COc1cc(Nc2ncc3c(n2)-c2ccc(Cl)cc2C(c2c(F)cccc2OC)=NC3)ccc1C(=O)O [Alisertib],mean inhibition of ROS,[1],80%
Cc1cc(Nc2nc(CC3(C(=O)O)CCN(C(=O)c4cccc(Cl)c4Cl)CC3)ccc2F)n[nH]1 [TAS-119],maximum tolerated dose (MTD),"[2]; 4 days on/3 days off, 3 out of 4 weeks",250 mg BID
same,DLT events in words,"[2]; DL 2.2, 250 mg BID","one patient with grade 2 AEs of fatigue, corneal epithelial microcysts and nausea"
same,DLT events in words,"[2]; DL 3, 300 mg BID, 2 patients","SAE of corneal microcysts, grade 2 and 3"
same,AE with the outcome of death,"[2]; escalation part, one patient at DL 2 (150 mg BID), disease progression, deemed not study treatment related",3%
same,AEs with the outcome of death,[2]; expansion part,No AEs with the outcome of death
same,AE: Alkaline phosphatase increase,"[2]; human, in vivo","7 (17.5) n, %"
same,AE: Amylase increase,"[2]; human, in vivo","4 (10.0) n, %"
same,AE: Gamma-glutamyltransferase increase,"[2]; human, in vivo","7 (17.5) n, %"
same,AE: Headache,"[2]; human, in vivo","5 (12.5) n, %"
same,AE: Hyperglycaemia,"[2]; human, in vivo","5 (12.5) n, %"
same,AE: Hypoalbuminaemia,"[2]; human, in vivo","5 (12.5) n, %"
same,AE: Hypokalaemia,"[2]; human, in vivo","4 (10.0) n, %"
same,AE: Hypotension,"[2]; human, in vivo","5 (14.7) n, %"
same,AE: Pruritis,"[2]; human, in vivo","4 (10.0) n, %"
same,AE: Upper respiratory tract infection,"[2]; human, in vivo","5 (12.5) n, %"
same,AE: Urinary tract infection,"[2]; human, in vivo","6 (15.0) n, %"
same,AE: Weight loss,"[2]; human, in vivo","4 (11.8) n, %"
same,AEs leading to discontinuation of study drug,"[2]; human, in vivo",12%
same,AEs leading to discontinuation of the study drug,"[2]; human, in vivo",8%
same,dose dependence of ocular toxicity,"[2]; human, in vivo",dose dependent and only seen at doses of 200 mg BID and above
same,grade ≥3 diarrhoea,"[2]; human, in vivo",5/74
same,grade ≥3 increased lipase without symptoms of pancreatitis,"[2]; human, in vivo",9/74
same,"ocular side effects, in total","[2]; human, in vivo",9 patients
same,ocular toxicity throughout the various DLs,"[2]; human, in vivo",38 % of the patients
same,recommended phase 2 dose (RP2D),"[2]; human, in vivo",200 mg BID
same,treatment-related AEs leading to discontinuation of study drug,"[2]; human, in vivo",9%
same,patients with DLT during cycle 1,[2]; in vivo,Five
same,patients with an ocular DLT,[2]; in vivo,four
same,treatment-related AEs leading to discontinuation of the study drug,[2]; in vivo,none
same,increase of plasma exposure with dose,"[3]; 70–300 mg BID, power model, linear model and one-way ANOVA",dose-proportional
same,CL/F and Vd/F among SLCO1B1 polymorphism-caused phenotypes (normal/intermediate/low),[3]; ANOVA,no statistical differences
same,mean ratio of AUC0 − last (accumulation),[3]; day 4,1.3
same,mean ratio of AUC0 − last (accumulation),[3]; day 18,1.2
same,ratio of AUC0 − last (accumulation),"[3]; continuous 200 mg BID schedule (DL 2.1), day 18",1.1
same,accumulation ratios throughout all DLs,"[3]; human, in vivo",low
same,half-life,"[3]; human, plasma, oral, blood concentrations, across dose levels",2.8 to 6 h
same,Tmax,"[3]; human, plasma, plasma, oral, read-out: Tmax range",0.5 to 2 h
same,Tmax,"[3]; human, plasma, plasma, oral, read-out: median Tmax",1.2 h
same,CL renal,"[3]; human, oral, read-out: CLr (renal clearance), median (converted)",4.17 mL/min
same,CL renal,"[3]; human, oral, read-out: CLr (renal clearance), range",2.5 to 5.17 mL/min
same,"oral clearance (CL/F), median",[3]; plasma,9.79 L/h
same,"oral clearance (CL/F), range",[3]; plasma,2.72 to 13.94 L/h
same,mean pHH3-positive rate in skin samples after administration,"[4]; 55 paired samples, pre-dose versus day 4 of cycle 1, p value <0.0001",increased
same,mean pHH3 rate in paired tumour samples,[4]; eight paired tumour samples,did not significantly change
same,mRNA expression level of mitosis genes after dosing,[5],no significant increase
same,patients with stable disease as best response,[6]; DL 2 (150 mg BID),6 patients
same,patients with stable disease as best response,[6]; DL 2.1 (200 mg BID continuous schedule),4 patients
same,patients with stable disease as best response,[6]; DL 2.1 (200 mg BID),4 patients
same,complete or partial response,[6]; dose escalation part,no complete response (CR) or partial response (PR)
same,stable disease as best response,"[6]; dose escalation part, fourteen patients",41%
same,patients with unconfirmed PR,"[6]; epithelial mesothelioma, DL 2 (150 mg BID), at cycle 4",One
same,target ORR of 20% (or ≥10% for MYC amplification or β-catenin mutation),[6]; expansion part,not met
same,complete or partial response,"[6]; expansion part, 200 mg BID",no confirmed CR or PR
same,patients with stable disease,"[6]; expansion part, MYC-amp/B-cat mutation-positive tumours",5 patients
same,patients with stable disease,"[6]; expansion part, SCLC",5 patients
same,patients with stable disease,"[6]; expansion part, basket cohort (1 mesothelioma, 1 colorectal cancer)",2 patients
same,patients with stable disease,"[6]; expansion part, breast cancer",1 patients
same,IC50,[7],1.04 nM
same,IC50,[8],95 nM
same,IC50,[9],36.5 nM
same,IC50,[10],1.46 ± 0.16 nM
same,IC50,[11],1.53 ± 0.12 nM
same,IC50,[12],1.47 ± 0.04 nM
same,IC50,[13],25.8 ± 1.5 nM
same,IC50,[14],29.3 ± 0.8 nM
same,growth inhibitory effects on cancer cells with MYC amplifications and/or Wnt/β-catenin pathway mutations,[15],more potent growth inhibitory effects
same,microscopic findings in pre-clinical high-dose toxicity study,"[16]; animals, considerable individual variation",degeneration and regeneration or hyperplasia of epithelial tissue
same,"vomiting and liquid faeces, cyclic administration versus daily administration","[16]; cyclic administration 4 days on/3 days off, pre-clinical",less frequent vomiting and liquid faeces
same,"microscopic findings in pre-clinical high-dose toxicity study, eyes",[16]; only in dogs,involvement of the epithelium of the eyes
same,severely toxic dose in 10% of exposed animals (STD10),[17],63 mg/kg BID
